PubChem BioAssay (NCI)
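Step 1: Grow cells in 96-well plates. Step 2: Expose to compound for 48 hours at 5 concentrations. Step 3: Interpolate endpoints linearly; if unreached, use highest concentration. GI50 marks 50% less growth. TGI: total growth inhibition.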

Tests used:
Test in all cases: NCI-60 cell line screen, 48 h
[1] = system: RPMI-8226 leukemia
[2] = system: LOX IMVI melanoma
[3] = system: M14 melanoma
[4] = system: IGROV1 ovarian
[5] = system: OVCAR-3 ovarian
[6] = system: COLO 205 colon
[7] = system: HT29 colon
[8] = system: UACC-62 melanoma
[9] = system: HCC-2998 colon
[10] = system: KM12 colon
[11] = system: OVCAR-4 ovarian
[12] = system: A498 renal
[13] = system: SNB-19 CNS
[14] = system: NCI-H522 lung
[15] = system: SF-295 CNS
[16] = system: T-47D breast
[17] = system: HOP-92 NSCLC
[18] = system: MDA-MB-435
[19] = system: OVCAR-8 ovarian
[20] = system: HCT-116 colon
[21] = system: HOP-62 NSCLC
[22] = system: MALME-3M melanoma
[23] = system: MDA-MB-231 breast
[24] = system: UACC-257 melanoma
[25] = system: ACHN renal
[26] = system: SK-OV-3 ovarian
[27] = system: MOLT-4 leukemia
[28] = system: CCRF-CEM leukemia
[29] = system: HS 578T breast
[30] = system: EKVX NSCLC
[31] = system: PC-3 prostate
[32] = system: SK-MEL-28 melanoma
[33] = system: CAKI-1 renal
[34] = system: BT-549 breast
[35] = system: UO-31 renal
[36] = system: SNB-75 CNS
[37] = system: SK-MEL-5 melanoma
[38] = system: 786-0 renal
[39] = system: SN12C renal
[40] = system: SW-620 colon
[41] = system: SK-MEL-2 melanoma
[42] = system: TK-10 renal
[43] = system: RXF 393 renal
[44] = system: NCI-H460 lung
[45] = system: HCT-15 colon
[46] = system: NCI-H23 lung
[47] = system: OVCAR-5 ovarian
[48] = system: SF-539 CNS
[49] = system: SR leukemia
[50] = system: MCF7 breast
[51] = system: U251 CNS
[52] = system: HL-60(TB) leukemia
[53] = system: SF-268 CNS
[54] = system: A549 NSCLC
[55] = system: DU-145 prostate
[56] = system: NCI/ADR-RES ovarian
[57] = system: NCI-H226 lung
[58] = system: K-562 leukemia

## Cc1ccc2c(c1)sc(-c1ccc(N(C)C)cc1)[n+]2C
[1]
  GI50: 0.13 µM
  TGI: 5.15 µM
[2]
  GI50: 1.28 µM
  TGI: 21.8 µM
[3]
  GI50: 1.79 µM
  TGI: > 38 µM
[4]
  GI50: 3.77 µM
  TGI: > 100 µM
[5]
  GI50: 0.685 µM
  TGI: 15 µM
[6]
  GI50: 0.368 µM
  TGI: 1.44 µM
[7]
  GI50: 0.854 µM
  TGI: > 37.9 µM
[8]
  GI50: 2.07 µM
  TGI: 15.5 µM
[9]
  GI50: 1.51 µM
  TGI: 19 µM
[10]
  GI50: 0.397 µM
  TGI: 14.6 µM
[11]
  GI50: 1.58 µM
  TGI: > 100 µM
[12]
  GI50: 0.785 µM
  TGI: 8.16 µM
[13]
  GI50: 1.95 µM
  TGI: 21 µM
[14]
  GI50: 1.45 µM
  TGI: > 100 µM
[15]
  GI50: 0.72 µM
  TGI: > 22.8 µM
[16]
  GI50: 0.299 µM
  TGI: 5.59 µM
[17]
  GI50: 0.719 µM
  TGI: 5.36 µM
[18]
  GI50: 0.879 µM
  TGI: 13 µM
[19]
  GI50: 1.41 µM
  TGI: 34.8 µM
[20]
  GI50: 0.502 µM
  TGI: > 34.6 µM
[21]
  GI50: 3.66 µM
  TGI: > 41.4 µM
[22]
  GI50: 1.38 µM
  TGI: 15.4 µM
[23]
  GI50: 2.75 µM
  TGI: 21.1 µM
[24]
  GI50: 0.657 µM
  TGI: 19.9 µM
[25]
  GI50: 5.89 µM
  TGI: > 100 µM
[26]
  GI50: 2.04 µM
  TGI: 7.91 µM
[27]
  GI50: 1.93 µM
  TGI: > 48.7 µM
[28]
  GI50: 1.98 µM
  TGI: > 62.5 µM
[29]
  GI50: 6.39 µM
  TGI: > 87.7 µM
[30]
  GI50: 0.379 µM
  TGI: > 100 µM
[31]
  GI50: 0.677 µM
  TGI: 9.23 µM
[32]
  GI50: 3.3 µM
  TGI: 20.9 µM
[33]
  GI50: 8.84 µM
  TGI: > 56.2 µM
[34]
  GI50: 0.464 µM
  TGI: 8.08 µM
[35]
  GI50: 18.9 µM
  TGI: > 100 µM
[36]
  GI50: 4.55 µM
  TGI: 34.8 µM
[37]
  GI50: 0.39 µM
  TGI: 1.8 µM
[38]
  GI50: 3.69 µM
  TGI: > 45.9 µM
[39]
  GI50: 2.71 µM
  TGI: 42.8 µM
[40]
  GI50: 2.28 µM
  TGI: > 66 µM
[41]
  GI50: 4.25 µM
  TGI: > 38 µM
[42]
  GI50: 1.99 µM
  TGI: 11.2 µM
[43]
  GI50: 9.16 µM
  TGI: > 47.4 µM
[44]
  GI50: 1.18 µM
  TGI: 8.25 µM
[45]
  GI50: 18.8 µM
  TGI: > 100 µM
[46]
  GI50: 0.987 µM
  TGI: > 48.8 µM
[47]
  TGI: > 100 µM
[48]
  GI50: 2.56 µM
  TGI: 14.1 µM
[49]
  GI50: 0.125 µM
  TGI: 19.4 µM
[50]
  GI50: 0.745 µM
  TGI: 28.3 µM
[51]
  GI50: 0.467 µM
  TGI: > 76 µM
[52]
  GI50: 0.273 µM
  TGI: 10.5 µM
[53]
  GI50: 2.44 µM
  TGI: 24.9 µM
[54]
  GI50: 0.741 µM
[55]
  GI50: 1.95 µM
  TGI: 32 µM
[56]
  GI50: > 95.8 µM
  TGI: > 100 µM
[57]
  GI50: 3.26 µM
  TGI: > 100 µM
[58]
  GI50: 0.242 µM
  TGI: > 50.3 µM
